Like-named read-outs stand apart in the source and are kept apart here.
Legend:
A549 = assay: Antiproliferative activity, resazurin assay, 72 h; type: cell-based, human
Description: (§1) Human cervix carcinoma (HeLa), Non-small lung adenocarcinoma (A549), Colon adenocarcinoma (HT29), and human triple negative breast cancer (MDA-MB-231) were cultured in Dulbecco’s modified Eagle’s media (DMEM). B-acute lymphoblastic leukemia (RS4;11 and SEM), T-acute lymphoblastic leukemia (Jurkat), and human promyelocytic cells (HL-60), were cultured in RPMI-1640 medium. Both media were purchased from Gibco, Life Technologies (Milan, Italy) and supplemented with 10% Fetal Bovine Serum (FBS, Invitrogen, Milan, Italy,). Every six months, each cell line was checked for the presence of mycoplasma by RT-PCR.
(§2) Stock solutions (10 mM) of the different compounds were made in DMSO. Cancer cells were seeded in tissue-treated, flat bottom, 384-well plates (Corning) according to their optimal density, (A549 1000 cells/wells; MDA-MB-231, HeLa and HT-29 2000 cells/well and finally Jurkat, HL-60 SEM and RS4;11 20.000 cells/well) in 27 µL of complete medium per well.
(§3) The day after cell seeding and immediately before cell treatment, 10 mM stock solutions of the compounds were pre-diluted to a […] concentration in 250 µL of Hank’s in a 96-well plate (Corning). Subsequent 1:5 dilutions were carried out using a microlab STAR 96-CORE liquid handling system (Hamilton), a robotized liquid handling tool that was employed for all steps, from cell seeding to drug dilution and cell treatment to ensure high reproducibility while reducing time for large screening execution. This pre-dilution step was necessary to avoid DMSO-related cytotoxicity and compound precipitation in the cell culture medium. In every case, DMSO concentration never exceeded 0.1%.
(§4) Positive (Bortezomib 1 µM) and negative (0.1% DMSO) controls were included in all the screened plates to allow for monitoring the Z’ factor throughout the entire screening. Cells were treated with 3 µL of the previously made dilutions; thus, generating a 6-point 5-fold dose–response curve starting from 10 µM. Within a plate, each drug concentration was tested in duplicate in two independent experiments for each compound.
(§5) Treated cells were then placed inside the CO2 incubator for 72 h at 37 °C. Cell viability was assessed by resazurin assay, in which 3 µL of resazurin per well were added using the previously described automated platform. Plates were placed in the incubator at 37 °C for 2 h, and then the fluorescence of each plate was read using a Spark 10 M multimode microplate reader (Tecan Group Ltd., Mannedorf, Switzerland) with 535 nm excitation wavelength and 600 nm emission wavelength.

HL-60 = assay: Antiproliferative activity, resazurin assay, 72 h; type: cell-based, human
Description: as §1, §2, §3, §4, §5

HT29 = assay: Antiproliferative activity, resazurin assay, 72 h; type: cell-based, human
Description: as §1, §2, §3, §4, §5

HeLa = assay: Antiproliferative activity, resazurin assay, 72 h; type: cell-based, human
Description: as §1, §2, §3, §4, §5

Jurkat = assay: Antiproliferative activity, resazurin assay, 72 h; type: cell-based, human
Description: as §1, §2, §3, §4, §5

MDA-MB-231 = assay: Antiproliferative activity, resazurin assay, 72 h; type: cell-based, human
Description: as §1, §2, §3, §4, §5

RS 4;11 = assay: Antiproliferative activity, resazurin assay, 72 h; type: cell-based, human
Description: as §1, §2, §3, §4, §5

CKα1 = biological target: T1, CKα1 (Homo sapiens, UniProt P35790); assay: Choline kinase assay ([methyl-14C]choline into PCho, purified enzyme); type: biochemical; details: for IC50: concentration required to inhibit CKα1 enzyme by 50%; for % Inhibition at 10 µM: purified CKα1, inhibitor 10 µM; for % Inhibition at 10 µM / % Inhibition at 30 µM: end-point assay; for % Inhibition at 30 µM: purified CKα1, inhibitor 30 µM
T1 construct: an N-terminally His-tagged truncated form of CKα1 (Δ75–457) was cloned into a pET-28a vector; His tag (N); made in house; host or cells: E. coli BL21 (DE3) Star
Description: The protein was produced and purified as previously described. Briefly, an N-terminally His-tagged truncated form of CKα1 (Δ75–457) was cloned into a pET-28a vector and expressed at 37 °C in E. coli BL21 (DE3) Star cells using 1 mM isopropyl β-D-1-thiogalactopyranoside (IPTG). After centrifugation, the cellular pellet was resuspended in 50 mM Tris-HCl pH 7.5, 500 mM NaCl, 0.2 mM phenylmethylsulphonyl fluoride (PMSF), DNase, and 0.5 mM β-mercaptoethanol, sonicated and subjected to a two-step purification procedure to isolate the target enzyme. […] Protein elution was completed using buffer A + 400 mM imidazole. A second size-exclusion chromatography step was then carried out to achieve complete purity. To this end, we used a HiPrep 26/60 Sephacryl 100 HR column (GE Healthcare, Little Chalfont, Buckinghamshire, UK) and a 20 mM Tris/HCl pH 7.5, 150 mM NaCl running buffer.
To study the effect of the compounds on CKα, an in vitro enzymatic assay was performed using the purified enzyme as previously reported in [19, 28, 29]. Briefly, the incorporation of ^14C from [methyl-^14C]choline into PCho in either the absence (control) or presence of different inhibitors at varying concentrations was used to determine the CK activity. The reaction mixture included 20 ng of purified CKα1, 10 mM ATP, 10 mM MgCl2, 100 mM Tris-HCl pH 8.5, and increasing concentrations of compounds. The mixture was preincubated at 37 °C for 5 min. Then, [methyl-^14C]choline chloride (1 mM, 4500 dpm/nmol) was added and the reaction was left to proceed for 10 min at 37 °C. The assay was stopped by immersing the reaction tubes in boiling water. PCho was separated by Thin Layer Chromatography using methanol/0.6% NaCl/28% NH4OH in water (50:50:5, v/v/v) as solvent. The radioactivity associated into PCho was determined in a Beckman 6000-TA (Madrid, Spain) liquid scintillation counter. The 50% inhibitory concentrations (IC50 values) were determined from the % enzyme activity at different concentrations of synthetic inhibitors relative to the control by using a sigmoidal dose–response curve (ED50plus v1.0 software).

SEM cells = assay: Antiproliferative activity, resazurin assay, 72 h; type: cell-based, human
Description: as §1, §2, §3, §4, §5

T1 sequence (P35790 75-457): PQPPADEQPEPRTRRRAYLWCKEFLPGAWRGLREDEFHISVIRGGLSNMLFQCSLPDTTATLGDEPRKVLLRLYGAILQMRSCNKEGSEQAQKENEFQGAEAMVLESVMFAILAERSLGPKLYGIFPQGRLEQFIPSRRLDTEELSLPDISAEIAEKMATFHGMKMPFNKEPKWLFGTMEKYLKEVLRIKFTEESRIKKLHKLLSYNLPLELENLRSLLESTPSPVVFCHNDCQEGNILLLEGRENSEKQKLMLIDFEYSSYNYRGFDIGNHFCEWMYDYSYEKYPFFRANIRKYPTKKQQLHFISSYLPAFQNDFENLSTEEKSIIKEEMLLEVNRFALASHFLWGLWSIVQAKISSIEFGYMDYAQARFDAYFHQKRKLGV

SMILES	GI50 (A549; Homo sapiens, A549) [nM]	GI50 (HL-60; Homo sapiens, HL-60) [nM]	GI50 (HT29; Homo sapiens, HT-29) [nM]	GI50 (HeLa; Homo sapiens, HeLa) [nM]	GI50 (Jurkat; Homo sapiens, Jurkat) [nM]	GI50 (MDA-MB-231; Homo sapiens, MDA-MB-231) [nM]	GI50 (HL-60) [nM]	GI50 (RS 4;11; Homo sapiens, RS4-11) [nM]	IC50 (CKα1) [nM]	% Inhibition at 10 µM (CKα1) [%]	% Inhibition at 30 µM (CKα1) [%]	GI50 (A549) [nM]	GI50 (HT29) [nM]	GI50 (HeLa) [nM]	GI50 (Jurkat) [nM]	GI50 (MDA-MB-231) [nM]	GI50 (RS 4;11) [nM]	GI50 (SEM cells) [nM]
C/[N+](c1ccc(Cl)cc1)=c1\ccn(Cc2ccc(-c3ccc(Cn4cc/c(=[N+](/C)c5ccc(Cl)cc5)c5ccccc54)cc3)cc2)c2ccccc12 [RSM-932A, reference compound]	450 ± 90	930 ± 100	400 ± 200	830 ± 100	410 ± 100	170 ± 50		170 ± 40										
[Br-].[Br-].c1cc2c(N3CCCCC3)nc[n+](Cc3ccc(-c4ccc(C[n+]5cnc(N6CCCCC6)c6ccsc65)cc4)cc3)c2s1 [Fg-30]									≥ 5000	75.46	85.71	600 ± 20	8320 ± 900	2890 ± 300	> 10000	800 ± 20	> 10000	> 10000
[Br-].[Br-].c1cc2c(s1)c(N1CCCC1)nc[n+]2Cc1ccc(-c2ccc(C[n+]3cnc(N4CCCC4)c4sccc43)cc2)cc1 [Fa-21]							3400 ± 700		≥ 5000	74.57	86.58	220 ± 10	> 10000	> 10000	> 10000	1710 ± 400	> 10000	> 10000
[Br-].[Br-].c1cc2c(N3CCCC3)nc[n+](Cc3ccc(-c4ccc(C[n+]5cnc(N6CCCC6)c6ccsc65)cc4)cc3)c2s1 [Fg-14]							1350 ± 100		4870 ± 570	80.28	94.14	280 ± 20	4160 ± 1000	2530 ± 800	> 10000	940 ± 90	> 10000	> 10000

Second part, led by results:

GI50 (A549; Homo sapiens, A549) [nM]	GI50 (HL-60; Homo sapiens, HL-60) [nM]	GI50 (HT29; Homo sapiens, HT-29) [nM]	GI50 (HeLa; Homo sapiens, HeLa) [nM]	GI50 (Jurkat; Homo sapiens, Jurkat) [nM]	GI50 (MDA-MB-231; Homo sapiens, MDA-MB-231) [nM]	GI50 (HL-60) [nM]	SMILES	GI50 (RS 4;11; Homo sapiens, RS4-11) [nM]	IC50 (CKα1) [nM]	% Inhibition at 10 µM (CKα1) [%]	% Inhibition at 30 µM (CKα1) [%]	GI50 (A549) [nM]	GI50 (HT29) [nM]	GI50 (HeLa) [nM]	GI50 (Jurkat) [nM]	GI50 (MDA-MB-231) [nM]	GI50 (RS 4;11) [nM]	GI50 (SEM cells) [nM]
						140 ± 10	[Br-].[Br-].c1cc2c(s1)c(N1CCCCC1)nc[n+]2Cc1ccc(CCCCc2ccc(C[n+]3cnc(N4CCCCC4)c4sccc43)cc2)cc1 [Fa-33]		1670 ± 80	98.90	97.80	160 ± 10	1070 ± 100	280 ± 20	1460 ± 100	410 ± 20	760 ± 100	1370 ± 70
						470 ± 30	[Br-].[Br-].c1cc2c(s1)c(N1CCCC1)cc[n+]2Cc1ccc(CCc2ccc(C[n+]3ccc(N4CCCC4)c4sccc43)cc2)cc1 [Fg-11]		2330 ± 200	93.07	94.25	390 ± 40	3650 ± 500	2190 ± 300	8530 ± 1100	680 ± 70	5720 ± 500	> 10000
						790 ± 50	[Br-].[Br-].c1cc2c(s1)c(N1CCCC1)cc[n+]2Cc1ccc(CCCCc2ccc(C[n+]3ccc(N4CCCC4)c4sccc43)cc2)cc1 [Ff-1]		1540 ± 170	82.15	90.83	970 ± 20	3320 ± 30	1900 ± 10	4130 ± 400	1230 ± 10	7900 ± 1300	3070 ± 300
